# Laboratory results from patent publication US10196363B2, “Dihydropyrimidin-2-one compounds and medical use thereof” (JAPAN TOBACCO INC., priority 2014, dated 2019).
# Read-outs that look alike come from different tables or passages of the source.
# What was measured:
# [1] = target: T1, human RORγ (Homo sapiens, UniProt P51449); assay: In vitro assay of inhibitory effect against RORγ transcriptional activity (GAL4-hRORγ LBD luciferase reporter gene assay in CHO cells); assay type: cell-based; conditions: for hRORγ luciferase activity, %-of-control: vehicle-control 0.2% DMSO alone = 100%
# T1 construct: human RORγ, from Ser253 to Lys518; expressed in transfected cells; host or cells: CHO cells (Chinese hamster ovary), transient co-transfection with pG5-Luc
# T1 sequence (P51449 253-518): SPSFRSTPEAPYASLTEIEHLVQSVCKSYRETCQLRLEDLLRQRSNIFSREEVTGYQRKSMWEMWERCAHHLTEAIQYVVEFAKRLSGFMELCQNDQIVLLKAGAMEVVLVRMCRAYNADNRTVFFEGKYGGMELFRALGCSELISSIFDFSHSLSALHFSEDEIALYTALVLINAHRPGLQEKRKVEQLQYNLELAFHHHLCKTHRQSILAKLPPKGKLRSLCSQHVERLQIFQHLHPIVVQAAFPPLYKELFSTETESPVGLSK
# Summary of the method: (§1)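 GAL4-DBD fused to RORγ LBD (human Ser253–Lys518; mouse Ile251–Lys516) was transiently co-transfected with GAL4-driven pG5-Luc firefly luciferase into CHO cells. Cells were treated with 8 concentrations of compound (0.2% DMSO) for 2 days at 37 °C, then luminescence was read. EC50 was fitted from %-of-vehicle control.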
# [2] = target: T2, mouse RORγ (Mus musculus, UniProt P51450); assay: In vitro assay of inhibitory effect against RORγ transcriptional activity (GAL4-mRORγ LBD luciferase reporter gene assay in CHO cells); assay type: cell-based; conditions: for mRORγ luciferase activity, %-of-control: vehicle-control 0.2% DMSO alone = 100%
# T2 construct: mouse RORγ, from Ile251 to Lys516; expressed in transfected cells; host or cells: CHO cells (Chinese hamster ovary), transient co-transfection with pG5-Luc
# T2 sequence (P51450 251-516): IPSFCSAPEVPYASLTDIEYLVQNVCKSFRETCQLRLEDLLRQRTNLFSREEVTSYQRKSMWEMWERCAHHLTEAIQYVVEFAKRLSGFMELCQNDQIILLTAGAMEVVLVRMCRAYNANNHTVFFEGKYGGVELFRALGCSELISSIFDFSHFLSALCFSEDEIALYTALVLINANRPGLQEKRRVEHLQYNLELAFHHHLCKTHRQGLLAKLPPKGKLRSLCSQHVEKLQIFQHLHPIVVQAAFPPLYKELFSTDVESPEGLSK
# Summary of the method: as §1
# [3] = GAL4-hRORγ LBD / pG5-Luc in CHO cells, 2 days incubation
# [4] = GAL4-mRORγ LBD / pG5-Luc in CHO cells, 2 days incubation
# [5] = value in parentheses beside the > EC50 bound
# [6] = GAL4-hRORγ LBD luciferase reporter, CHO cells, read-out: LUC EC50 hRORγ
# [7] = GAL4-mRORγ LBD luciferase reporter, CHO cells, read-out: LUC EC50 mRORγ
# [8] = value in parentheses beside the EC50 bound
Compound,"EC50 [1, 3]","EC50 [2, 4]","EC50 [1, 6]","EC50 [2, 7]",other results
CC(C)C1=CN(CCCC(=O)O)C(=O)N[C@@]1(C)c1ccc(CCC2CCC2)c(Cl)c1 [Example 110],11 nM,10 nM,–,–,–
CC(C)C1=CN([C@@H]2CC(=O)N(CC(=O)O)C2)C(=O)N[C@@]1(C)c1ccc(CCC(C)(C)C)c(Cl)c1 [Example 163],143 nM,267 nM,–,–,–
CC(C)(C)CCc1ccc([C@]2(C)NC(=O)N([C@H]3C[C@H](C(=O)O)C3)C=C2C2CC(F)(F)C2)cc1Cl [Example 96],33 nM,26 nM,–,–,–
CC(C)C1=CN(CCCC(C)(C)C(=O)O)C(=O)N[C@@]1(C)c1ccc(CCC(C)(C)C)c(Cl)c1 [Example 75],296 nM,316 nM,–,–,–
CC(C)C1=CN(CCCC(=O)O)C(=O)N[C@]1(C)c1ccc(CCC(C)(C)C)c(Cl)c1 [Example 14],> 8000 nM,> 8000 nM,–,–,"hRORγ luciferase activity, %-of-control [1, 5]: (69%); mRORγ luciferase activity, %-of-control [2, 5]: (59%)"
CC(C)(C)CCc1ccc(C2(C)NC(=O)N(CCCC(=O)O)C=C2C2CN(S(C)(=O)=O)C2)cc1Cl (racemic) [Example 81],2580 nM,2490 nM,–,–,–
CC(C)C1=CN(C(C)(C)CC(=O)O)C(=O)N[C@@]1(C)c1ccc(CCC(C)(C)C)c(Cl)c1 [Example 259],–,–,57 nM,43 nM,–
CC(C)(C)CCc1ccc([C@]2(C)NC(=O)N(CCCC(=O)O)C=C2C2(C)CC2)cc1Cl [Example 52],10 nM,15 nM,–,–,–
COCCC1=CN(c2ccc(C(=O)O)cc2)C(=O)N[C@@]1(C)c1ccc([C@H]2C[C@@H](C(C)C)C2)c(Cl)c1 [Example 318],–,–,17 nM,14 nM,–
CC(C)C1=CN(CCC(=O)O)C(=O)N[C@@]1(C)c1ccc(CCC(C)(C)C)c(C(F)(F)F)c1 [Example 270],–,–,52 nM,26 nM,–
COc1cc(N2C=C(C3CC(F)(F)C3)[C@](C)(c3ccc(CCC(C)(C)C)c(Cl)c3)NC2=O)ccc1C(=O)O [Example 346],–,–,26 nM,18 nM,–
CC(C)C1=CN(CC(C)(C)CC(=O)O)C(=O)N[C@@]1(C)c1ccc(CCC(C)(C)C)c(Cl)c1 [Example 36],21 nM,24 nM,–,–,–
CC(C)CC[S+]([O-])c1ccc([C@]2(C)NC(=O)N(CCC(=O)O)C=C2C(C)C)cc1Cl (mixture of isomers) [Example 217],–,–,> 20000 nM,> 20000 nM,"hRORγ luciferase activity, %-of-control [1, 8]: (90%); mRORγ luciferase activity, %-of-control [2, 8]: (77%)"
CC(C)C1=CN(CCC(=O)O)C(=O)N[C@@]1(C)c1ccc(OCCC(F)(F)F)c(Cl)c1 [Example 140],209 nM,139 nM,–,–,–
CC(C)CSc1ccc([C@]2(C)NC(=O)N(CCC(=O)O)C=C2C(C)C)cc1Cl [Example 214],–,–,169 nM,100 nM,–
CC(C)(C)CCc1ccc([C@@]2(C)NC(=O)N(CCCC(=O)O)C=C2C2(C)CC2)cc1Cl [Example 51],1180 nM,1080 nM,–,–,–
CC(C)(C)COc1ccc(C2NC(=O)NC=C2C(C)(C)CC(=O)O)cc1Cl (racemic) [Example 4],1440 nM,675 nM,–,–,–
CC(C)(C)CCc1ccc(C2NC(=O)N(CCCC(=O)O)C=C2C(C)(C)C)cc1Cl (racemic) [Example 8],21 nM,22 nM,–,–,–
"CC(C)C1=CN(CCC(=O)O)C(=O)N[C@]1(C)c1ccc(C2=CCC(C)(C)CC2)c(Cl)c1 [Example 115, 3-{(R)-4-[3-Chloro-4-(4,4-dimethyl-cyclohex-1-enyl)-phenyl]-5-isopropyl-4-methyl-2-oxo-3,4-dihydro-2H-pyrimidin-1-yl}-propionic Acid]",> 8000 nM,> 8000 nM,–,–,"hRORγ luciferase activity, %-of-control [1, 5]: (110%); mRORγ luciferase activity, %-of-control [2, 5]: (100%)"
Cc1cc(N2C=C(C(C)C)[C@](C)(c3ccc(CCC(C)(C)C)c(Cl)c3)NC2=O)ccc1C(=O)O [Example 266],–,–,12 nM,17 nM,–
CC(C)C1=CN(CCC(=O)O)C(=O)N[C@]1(C)c1ccc(C2CCC2)c(Cl)c1 [Example 152],> 20000 nM,> 20000 nM,–,–,"hRORγ luciferase activity, %-of-control [1, 5]: (56%); mRORγ luciferase activity, %-of-control [2, 5]: (57%)"
"CC(C)C1=CN(C2CCC(C(=O)O)C2)C(=O)N[C@]1(C)c1ccc(CCC(C)(C)C)c(Cl)c1 (single isomer, unassigned) [Example 63]",> 8000 nM,> 8000 nM,–,–,"hRORγ luciferase activity, %-of-control [1, 5]: (51%); mRORγ luciferase activity, %-of-control [2, 5]: (70%)"
